These results are taken from PMC6629894, “Ruthenium Complexes Containing Heterocyclic Thioamidates Trigger Caspase-Mediated Apoptosis Through MAPK Signaling in Human Hepatocellular Carcinoma Cells” (Frontiers in Oncology, 2019).

One assay deals with ERK1/2 (pT202/pY204). Nature of the assay: Phosflow analysis of phosphorylated MAPK. In kind it is cell-based, human. The conditions noted are these: HepG2, 10 μM, 15 min. How it is done:
(§1) Phosphorylated extracellular signal-regulated kinase (ERK), JNK/SAPK and p38 MAPK were quantified by flow cytometry as previously described ([26]). The cells were collected and resuspended in 0.5–1 mL of 4% formaldehyde and fixed for 10 min at 37°C. Then, the tubes were chilled on ice for 1 min. The cells were permeabilized by slowly adding ice-cold 100% methanol to the cooled cells while gently vortexing to a final concentration of 90% methanol and incubating for 30 min on ice. After washing with incubation buffer (0.5% bovine serum albumin in PBS), PE mouse anti-JNK/SAPK (pT183/pY185) (ID 562480), PE mouse anti-p38 MAPK (pT180/pY182) (ID 612565), PE mouse anti-ERK1/2 (pT202/pY204) (ID 612566) or PE mouse IgG1,κ isotype control (ID 555749) antibodies, all from BD Biosciences, were added and incubated for 1 h at room temperature. Finally, the cells were washed with PBS, and the cell fluorescence was measured by flow cytometry.
(§2) For all flow cytometry analyses, at least 10^4 events were recorded per sample using a BD LSRFortessa cytometer, BD FACSDiva Software (BD Biosciences) and FlowJo Software 10 (FlowJo Lcc; Ashland, OR, USA). Cellular debris was omitted from the analysis.

A further assay relates to p38 MAPK (pT180/pY182). As to the kind of experiment: Phosflow analysis of phosphorylated MAPK. Type of assay: cell-based, human. The conditions noted are these: HepG2, 10 μM. How it is done:
as §1, §2

A further assay has as its system JNK/SAPK (pT183/pY185). Nature of the assay: Phosflow analysis of phosphorylated MAPK. In kind it is cell-based, human. Conditions: HepG2, 10 μM. How it is done:
as §1, §2

In another assay the test system is human topoisomerase IB. Set-up: method as in PMID 26795676. Conditions: ref [18], [19]; cited from earlier work.
In the next assay the test system is calf thymus DNA (ctDNA). As to the kind of experiment: DNA interaction assay (ethidium bromide displacement). In kind it is binding. How it is done:
DNA interaction was measured in a cell-free system as previously described ([22]). In this assay, the ability of the complexes to translocate ethidium bromide, a DNA intercalator, from calf thymus DNA (ctDNA, Sigma-Aldrich Co.) was examined. […] […] After a 15 min incubation at room temperature, fluorescence was measured using the excitation and emission wavelengths of 320 and 600 nm, respectively, using a Spectramax Microplate Reader (Molecular Devices).

Assay [1] has as its system cancer cells with different histological types. Nature of the assay: Cytotoxicity, summary over the panel of cancer cells. In kind it is cell-based. Conditions: read-out: IC50 values against cancer cells (summary). How it is done:
Cytotoxicity was measured colorimetrically using an Alamar blue method that was performed as previously described ([20], [21]). Cells were seeded in 96-well plates for all experiments (7 × 10^4 cells/mL for adherent cells or 3 × 10^5 cells/mL for suspension cells in 100 μL of medium) and incubated overnight at 37°C with 5% CO2 to allow for adherence. The complexes were dissolved in 0.5% dimethyl sulfoxide (DMSO, Vetec Química Fina) at eight different concentrations from 0.19 to 25 μg/mL and were added to each well and incubated for 72 h. The negative control was treated with the vehicle (0.5% DMSO) that was used to solubilize and dilute the complexes. […] Four (for cell lines) or 24 h (for PBMCs) before the end of incubation, 20 μL of a stock solution (0.312 mg/mL) of resazurin (Sigma-Aldrich Co.) was added to each well. Absorbance was measured at 570 and 600 nm using a SpectraMax 190 Microplate Reader (Molecular Devices, Sunnyvale, CA, USA).

In assay [2] the test system is HSC-3 (human oral squamous cell carcinoma). As to the kind of experiment: Alamar blue cytotoxicity assay, 72 h. Type of assay: cell-based. The gist of the method: (§3)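 Alamar blue assay in RPMI 1640/10% FBS: eight complex concentrations (0.19–25 μg/mL, 0.5% DMSO) for 72 h, resazurin during last 4 h, absorbance 570 and 600 nm.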
A general note: Alamar Blue is a resazurin reagent that responds to reducing activity.

The subject of assay [3] is SCC-4 (human oral squamous cell carcinoma). As to the kind of experiment: Alamar blue cytotoxicity assay, 72 h. In kind it is cell-based. In outline:
as §3

Assay [4] relates to HCT116 (human colon carcinoma). As to the kind of experiment: Alamar blue cytotoxicity assay, 72 h. In kind it is cell-based. In outline: as §3
Assay [5] relates to HL-60 (human promyelocytic leukemia). As to the kind of experiment: Alamar blue cytotoxicity assay, 72 h. Type of assay: cell-based. The gist of the method: as §3
Assay [6] deals with MCF-7 (human breast carcinoma). As to the kind of experiment: Alamar blue cytotoxicity assay, 72 h. In kind it is cell-based. The gist of the method: as §3
The subject of assay [7] is HepG2 cells. Nature of the assay: DNA content: internucleosomal DNA fragmentation and cell cycle distribution by flow cytometry. In kind it is cell-based, human. Conditions: 24 and 48 h. How it is done:
(§4) For all subsequent in vitro experiments, 2 mL of a suspension of HepG2 cells were seeded (7 × 10^4 cells/mL) and incubated in a 24-well plate overnight to allow the cells to adhere to the plate surface.
In this assay, cells were harvested in a permeabilization solution containing 0.1% Triton X-100, 2 μg/mL propidium iodide, 0.1% sodium citrate and 100 μg/mL RNAse (all from Sigma-Aldrich Co.) and incubated in the dark for 15 min at room temperature.
as §2
A general note: Flow cytometry measures light scatter and fluorescence of single cells or particles in a stream.

Assay [8] has as its system HepG2 cells. As to the kind of experiment: Cell morphology: May-Grunwald-Giemsa staining and light scattering. In kind it is cell-based, human. Conditions: 24 and 48 h. As for the experimental part:
as §4
To evaluate alterations in the morphology, cells were cultured on a coverslip and stained with May-Grunwald-Giemsa. Morphological changes were examined by light microscopy (Olympus BX41) using Image-Pro software (Media Cybernetics).

As a reminder, the IC50 is the concentration needed to halve the response being measured. For `Cn1ccnc1[S-].F[P-](F)(F)(F)(F)F.[Ru+2].c1ccc(-c2ccccn2)nc1.c1ccc(P(CCCCP(c2ccccc2)c2ccccc2)c2ccccc2)cc1` [Complex 1, [Ru(mmi)(bipy)(dppb)]PF6], in the assay with ERK1/2 (pT202/pY204), the “phosphorylation of ERK1/2” value is given as “induced the phosphorylation of ERK1/2”. Besides, in the assay on p38 MAPK (pT180/pY182), the “phosphorylation of p38 MAPK” value is given as “no significant increase”. Also, the “phosphorylation of JNK/SAPK” value with JNK/SAPK (pT183/pY185) is “no significant increase”. Besides, the “supercoiled DNA relaxation mediated by human topoisomerase IB” value with human topoisomerase IB is reported as “inhibit the supercoiled DNA relaxation”. The “reduction of the fluorescence intensity (ethidium bromide-ctDNA) vs negative control” value (“reduction of the fluorescence intensity” for short) with calf thymus DNA (ctDNA) (5 μM) is 41.6%; in the assay on calf thymus DNA (ctDNA) (10 μM), 34.0%; in the assay on calf thymus DNA (ctDNA) (20 μM), 30.4%. For the same compound, the IC50 in [1] is below 10 µM.

As to `F[P-](F)(F)(F)(F)F.[Ru+2].[S-]C1=NCCS1.c1ccc(-c2ccccn2)nc1.c1ccc(P(CCCCP(c2ccccc2)c2ccccc2)c2ccccc2)cc1` [Complex 2, [Ru(tzdt)(bipy)(dppb)]PF6], the “supercoiled DNA relaxation mediated by human topoisomerase IB” value in the assay with human topoisomerase IB is recorded as “inhibit the supercoiled DNA relaxation”. The “reduction of the fluorescence intensity” value was found to be 36.9% in the assay on calf thymus DNA (ctDNA) (5 μM), 42.9% with calf thymus DNA (ctDNA) (10 μM) and 45.4% with calf thymus DNA (ctDNA) (20 μM). In addition, the IC50 in assay [1] is below 10 µM; in assay [6] (read-out: IC50 and 95% CI, MCF-7, 72 h), 7.3 µM. Besides, the “Selectivity index (SI = IC50 [noncancerous cells]/IC50 [cancer cells])” value (from here on “Selectivity index”) in [2] (MRC-5 vs HSC-3) turned out to be 0.7; in assay [2] (PBMCs vs HSC-3), 1.2; in assay [3] (MRC-5 vs SCC-4), 0.4; in [3] (PBMCs vs SCC-4), 0.7; in assay [4] (MRC-5 vs HCT116), 0.6; in assay [4] (PBMCs vs HCT116) it was 1.0. The “Selectivity index” value was 1.5 in assay [5] (MRC-5 vs HL-60), 2.4 in assay [5] (PBMCs vs HL-60), 0.2 in assay [6] (MRC-5 vs MCF-7) and 0.4 in assay [6] (PBMCs vs MCF-7).

For `COc1cccc2c1C(=O)c1c(O)c3c(c(O)c1C2=O)C[C@@](O)(C(=O)CO)C[C@@H]3O[C@H]1C[C@H](N)[C@H](O)[C@H](C)O1` [Doxorubicin, reference compound], the cell cycle distribution result in the assay with HepG2 cells [7] (2 μM) is given as “cell cycle arrest at the G2/M phase”. Also, in the assay with HepG2 cells [7], the “internucleosomal DNA fragmentation (sub-G0/G1)” value is on record as “DNA fragmentation”. In the assay with HepG2 cells [8], the cell morphology entry was “apoptosis-related morphological alterations”. The “reduction of the fluorescence intensity” value in the assay on calf thymus DNA (ctDNA) (20 μM) turned out to be 89.0%. The “Selectivity index” value in [2] (MRC-5 vs HSC-3) amounted to 0.8; in [2] (PBMCs vs HSC-3), 5.0; in assay [3] (MRC-5 vs SCC-4) it was 0.1; in [3] (PBMCs vs SCC-4), 0.6; in assay [4] (MRC-5 vs HCT116), 1.3; in [4] (PBMCs vs HCT116), 8.3. The “Selectivity index” value in assay [5] (MRC-5 vs HL-60) is 2.0; in [5] (PBMCs vs HL-60) it was 12.5; in assay [6] (MRC-5 vs MCF-7) it was 1.0; in assay [6] (PBMCs vs MCF-7), 6.3. For the same compound, the IC50 in [3] (Homo sapiens, SCC-4, 72 h, read-out: IC50 and 95% CI) was determined as 4 µM.
